Measurements as given in patent US20210388012A1, “METHODS AND COMPOSITIONS FOR PRODRUG FORMS OF SPECTINOMYCIN AND SPECTINAMIDE ANALOGS” (priority 2018, published 2021).

Assays:
[1] = tested on: M. tuberculosis H37Rv; test: Minimum inhibitory concentration (MIC), microbroth dilution; format: cell-based; settings: Mycobacterium tuberculosis, H37RV, 168 h, read-out: MIC (H37Rv)
[2] = target: Mycobacterium smegmatis 70S bacterial ribosomes; test: Ribosomal inhibition assay (luciferase-based protein synthesis inhibition); format: biochemical; settings: purified M. smegmatis 70S ribosomes, firefly luciferase mRNA
Procedure: In vitro activity was also assessed using a ribosomal inhibition assay. Briefly, luciferase-based protein synthesis inhibition assays were performed in translation reaction as described previously (Bruell, et al. Biochemistry. 2008 47 (34), 8828-8839), using purified Mycobacterium smegmatis 70S bacterial ribosomes and firefly luciferase mRNA prepared in vitro using T7 RNA polymerase. IC50 values represent the drug concentration that inhibits luciferase activity by 50%.

[3] = in vitro; format: in vitro ADME; settings: human plasma, 37° C., read-out: Plasma Stability (Human) t½ (converted)
Procedure: (§1) LC-MS Method 2. Chromatographic separation was performed on an Acquity UPLC BEH C18 1.7 μm, 2.1×50 mm column (Waters Corporation, Milford, Mass.) or a Luna Omega 1.6 μm C18, 2.1×50 mm column (Phenomenex, Torrance, Calif.) using an Acquity ultra performance liquid chromatography system. Data were acquired using Masslynx v. 4.1 and analyzed using the Openlynx software suite. This was coupled to an Acquity photodiode array detector, which acquired UV data from 210-400 nm. The flow was then split, with half directed to an evaporative light scattering detector (ELSD) and half to an SQ mass spectrometer. The total flow rate was 1 mL/min. The sample injection volume was 10 μL. The UPLC column was maintained at 60° C. and the gradient program with either basic mobile phase (A1, 10 mM ammonium bicarbonate in MilliQ H2O; B1, 0.1% formic acid in acetonitrile) or formic mobile phase (A1, 0.1% formic acid in MilliQ H2O; B1, 0.1% formic acid in acetonitrile) based on the compounds' physical and chemical properties. The mass spectrometer was operated in positive-ion mode with electrospray ionization. The conditions were as follows; capillary voltage 3.4 kV, cone voltage 30 V, source temperature 130° C., desolvation temperature 400° C., desolvation gas 800 L/hr, cone gas 100 L/hr. A full scan range from m/z=110-1000 in 0.2 s was used to acquire MS data. The ELSD-drift tube temperature was set at 52° C.
Plasma stability was determined after incubation in human plasma for various incubation time, i.e., incubation times of 0, 3, 24, and 48 hour were used. DMSO stock solutions of test compounds were prepared at 10 mM concentration. 1.8 μL of each test compound was each added directly to 1.8 mL of human plasma to get the final concentration of 10 μM. This compound/matrix was mixed and 70 μL was transferred to 4 time points plates (each in triplicate wells). […] The plasma stability was evaluated via the half-life from least-squares fit of the multiple time points based on first-order kinetics.

[4] = Metabolic stability, human liver microsomal degradation; format: in vitro ADME; settings: human liver microsomes; read-out: Metabolic Stability (Human) t½ (converted)
Procedure: as §1
The stability of compounds to human liver microsomal degradation, i.e., metabolic stability, was determined as described previously (see North, E. J., et al, Bioorg. Med. Chem. (2013) 21(9):2587-2599) and the rate of degradation was monitored by LC-MS analysis using multiple sampled time points as described herein above in LC-MS Method 2. Metabolic stability was evaluated via the half-life from least squares fit of the concentration remaining at the time points based on first-order kinetics.

With `CN[C@@H]1[C@H](O)[C@H](NC)[C@H]2O[C@]3(O)[C@H](O[C@@H]2[C@H]1O)O[C@H](C)C[C@H]3NC(=O)Cc1ccc(OP(=O)(O)O)cn1` [Compound 3408, 6-(2-oxo-2-(((2R,4R,4a5,5aR,6S,7S,8R,9S,9aR,10aS)-4a,7,9-trihydroxy-2-methyl-6,8-bis(methylamino)decahydro-2H-benzo[b]pyrano[2,3-e][1,4]dioxin-4-yl)amino)ethyl)pyridin-3-yl dihydrogen phosphate] the MIC [1] was 100 µg/mL, the “IC50 (M. smegmatis)” value [2] was 6.70 µg/mL and the half-life at 10 µM [3] was under 5 min. It also gave a half-life [4] of under 5 min.
